Assay results reported in US4791118A, “Quinolonecarboxylic acid derivatives and their preparation” (Kyorin Pharmaceutical Co., Ltd., priority 1985, dated 1988).
In brackets after ≈: the same amount, converted by molar mass. Read-outs that look alike come from different tables or passages of the source.

Assays:
[1] = system: S. pyogenes IID 692; experiment: MIC, aerobic bacteria; type: cell-based; conditions: Streptococcus pyogenes, IID692, Gram +, 10^6 cells/ml
[2] = system: E. faecalis IID 682; experiment: MIC, aerobic bacteria; type: cell-based; conditions: Enterococcus faecalis, IID682, Gram +, 10^6 cells/ml
[3] = system: E. coli ML 4707; experiment: MIC, aerobic bacteria; type: cell-based; conditions: Escherichia coli, ML4707, Gram -, 10^6 cells/ml
[4] = system: P. aeruginosa IFO 12689; experiment: MIC, aerobic bacteria; type: cell-based; conditions: Pseudomonas aeruginosa, IFO12689, Gram -, 10^6 cells/ml
[5] = system: P. aeruginosa IID 1210; experiment: MIC, aerobic bacteria; type: cell-based; conditions: Pseudomonas aeruginosa, IID1210, Gram -, 10^6 cells/ml
[6] = system: Acinetobacter anitratus IID 876; experiment: MIC, aerobic bacteria; type: cell-based; conditions: Acinetobacter calcoaceticus, IID876, Gram -, 10^6 cells/ml
Source text: (§1) | Organism (10^6 cells/ml)

[7] = system: Citrobacter freundii IID 976; experiment: MIC, aerobic bacteria; type: cell-based; conditions: IID976, Gram -, 10^6 cells/ml
Source text: as §1

[8] = system: E. coli ATCC 10536; experiment: MIC, aerobic bacteria; type: cell-based; conditions: Escherichia coli, ATCC10536, Gram -, 10^6 cells/ml
Source text: as §1

[9] = system: Escherichia coli NIHJ JC-2; experiment: MIC, aerobic bacteria; type: cell-based; conditions: NIHJJC2, Gram -, 10^6 cells/ml
Source text: as §1

[10] = system: Klebsiella pneumoniae KY(GN)6445; experiment: MIC, aerobic bacteria; type: cell-based; conditions: Gram -, 10^6 cells/ml
Source text: as §1

[11] = system: Morganella morganii IID 602; experiment: MIC, aerobic bacteria; type: cell-based; conditions: IID602, Gram -, 10^6 cells/ml
Source text: as §1

[12] = system: P. mirabilis IID 992; experiment: MIC, aerobic bacteria; type: cell-based; conditions: Proteus mirabilis, IID992, Gram -, 10^6 cells/ml
Source text: as §1

[13] = system: Proteus vulgaris IFO 3167; experiment: MIC, aerobic bacteria; type: cell-based; conditions: IFO3167, Gram -, 10^6 cells/ml
Source text: as §1

[14] = system: S. aureus IID 670 (Terajima); experiment: MIC, aerobic bacteria; type: cell-based; conditions: Staphylococcus aureus, IID670, Gram +, 10^6 cells/ml
Source text: as §1

[15] = system: S. epidermidis IID 866; experiment: MIC, aerobic bacteria; type: cell-based; conditions: Staphylococcus epidermidis, IID866, Gram +, 10^6 cells/ml
Source text: as §1

[16] = system: Serratia marcescens IID 618; experiment: MIC, aerobic bacteria; type: cell-based; conditions: IID618, Gram -, 10^6 cells/ml
Source text: as §1

[17] = system: B. thetaiotaomicron (0661); experiment: MIC, anaerobic bacteria; type: cell-based; conditions: Bacteroides thetaiotaomicron, Gram -, 10^6 cells/ml
[18] = system: Propionibacterium acens 11828; experiment: MIC, anaerobic bacteria; type: cell-based
[19] = system: S. pneumoniae 2054; experiment: MIC, clinical isolates; type: cell-based; conditions: Streptococcus pneumoniae; clinical isolate S. pneumoniae 2054; 10^6 cells/ml
[20] = system: S. agalactiae 4049; experiment: MIC, clinical isolates; type: cell-based; conditions: Streptococcus agalactiae; clinical isolate S. agalactiae 4049; 10^6 cells/ml
[21] = system: S. agalactiae 4342; experiment: MIC, clinical isolates; type: cell-based; conditions: Streptococcus agalactiae; clinical isolate S. agalactiae 4342; 10^6 cells/ml
[22] = system: S. agalactiae 4368; experiment: MIC, clinical isolates; type: cell-based; conditions: Streptococcus agalactiae; clinical isolate S. agalactiae 4368; 10^6 cells/ml
[23] = system: E. faecalis 49; experiment: MIC, clinical isolates; type: cell-based; conditions: Enterococcus faecalis; clinical isolate E. faecalis 49; 10^6 cells/ml
[24] = system: E. faecalis 214; experiment: MIC, clinical isolates; type: cell-based; conditions: Enterococcus faecalis; clinical isolate E. faecalis 214; 10^6 cells/ml
[25] = system: E. faecalis 604; experiment: MIC, clinical isolates; type: cell-based; conditions: Enterococcus faecalis; clinical isolate E. faecalis 604; 10^6 cells/ml
[26] = system: Enterobacter cloacae IID 977; experiment: MIC, aerobic bacteria; conditions: IID977
[27] = system: Alcaligenes faecalis 0114002; experiment: MIC, aerobic bacteria
[28] = system: B. melaninogenicus GAI 0410; experiment: MIC, anaerobic bacteria; conditions: Prevotella intermedia, GAI0410
[29] = system: Eubacterium limosum KYA 8486; experiment: MIC, anaerobic bacteria; conditions: KYA8486
[30] = system: C. ramosum; experiment: MIC, anaerobic bacteria; conditions: Thomasclavelia ramosa
[31] = system: K. pneumoniae 1-220S; experiment: microbe, parasite or virus in culture; conditions: Klebsiella pneumoniae, 1220S
[32] = system: Yersinia enterocolitica IID 981; experiment: microbe, parasite or virus in culture; conditions: IID981
[33] = system: P. cepacia GIFU 518; experiment: microbe, parasite or virus in culture; conditions: Burkholderia cepacia, GIFU518
[34] = system: F. varium KYA 8501; experiment: microbe, parasite or virus in culture; conditions: Fusobacterium varium, KYA8501
[35] = system: E. lentum GAI 5242; experiment: microbe, parasite or virus in culture; conditions: Eggerthella lenta, GAI5242
[36] = system: S. agalactiae 4394; experiment: microbe, parasite or virus in culture; conditions: Streptococcus agalactiae
[37] = system: E. faecalis 402; experiment: microbe, parasite or virus in culture; conditions: Enterococcus faecalis

SMILES | MIC [1] | MIC [2] | MIC [3] | MIC [4] | MIC [5] | MIC [6] | MIC [7] | MIC [8] | MIC [9] | MIC [10] | MIC [11] | MIC [12] | MIC [13] | MIC [14] | MIC [15] | MIC [16] | MIC [17] | MIC [19] | MIC [20] | MIC [21] | also measured
O=C(O)c1cn(C2CC2)c2c(Cl)c(N3CCC(CNCCF)C3)c(F)cc2c1=O (centres unmarked) [Exp. 1, 8-Chloro-1-cyclopropyl-6-fluoro-7-[3-(2-fluoroethyl)aminomethyl-1-pyrrolidinyl]-1,4-dihydro-4-oxo-3-quinolinecarboxylic acid] | 0.05 mg/L (≈ 0.117 µM) | 0.05 mg/L (≈ 0.117 µM) | 0.0125 mg/L (≈ 0.0294 µM) | 1.56 mg/L (≈ 3.66 µM) | 1.56 mg/L (≈ 3.66 µM) | 0.05 mg/L (≈ 0.117 µM) | 0.05 mg/L (≈ 0.117 µM) | 0.0125 mg/L (≈ 0.0294 µM) | 0.0125 mg/L (≈ 0.0294 µM) | 0.05 mg/L (≈ 0.117 µM) | 0.1 mg/L (≈ 0.235 µM) | 0.025 mg/L (≈ 0.0587 µM) | 0.025 mg/L (≈ 0.0587 µM) | ≤ 0.0063 mg/L | 0.0125 mg/L (≈ 0.0294 µM) | 0.1 mg/L (≈ 0.235 µM) | 0.2 mg/L (≈ 0.47 µM) | 0.025 mg/L (≈ 0.0587 µM) | 0.025 mg/L (≈ 0.0587 µM) | 0.05 mg/L (≈ 0.117 µM) | MIC ([18]; Propionibacterium, 11828): 0.78 mg/L (≈ 1.83 µM); MIC [22]: 0.025 mg/L (≈ 0.0587 µM); MIC [23]: 0.05 mg/L (≈ 0.117 µM); MIC [24]: 0.05 mg/L (≈ 0.117 µM); MIC [25]: 0.05 mg/L (≈ 0.117 µM); MIC [26]: 0.1 mg/L (≈ 0.235 µM); MIC [27]: 0.39 mg/L (≈ 0.916 µM); MIC [28]: 0.1 mg/L (≈ 0.235 µM); MIC [29]: 0.39 mg/L (≈ 0.916 µM); MIC [30]: 0.1 mg/L (≈ 0.235 µM); MIC [31]: 0.1 mg/L (≈ 0.235 µM); MIC [32]: 0.1 mg/L (≈ 0.235 µM); MIC [33]: 0.78 mg/L (≈ 1.83 µM); MIC [34]: 0.39 mg/L (≈ 0.916 µM); MIC [35]: 0.1 mg/L (≈ 0.235 µM); MIC [36]: 0.1 mg/L (≈ 0.235 µM); MIC [37]: 0.1 mg/L (≈ 0.235 µM)
O=C(O)c1cn(C2CC2)c2c(F)c(N3CCC(CNCCF)C3)c(F)cc2c1=O (centres unmarked) [Exp. 2, 1-Cyclopropyl-7-[3-(2-fluoroethyl)aminomethyl-1-pyrrolidinyl]-6,8-difluoro-1,4-dihydro-4-oxo-3-quinolinecarboxylic acid] | 0.1 mg/L (≈ 0.244 µM) | 0.1 mg/L (≈ 0.244 µM) | 0.025 mg/L (≈ 0.0611 µM) | 1.56 mg/L (≈ 3.81 µM) | 1.56 mg/L (≈ 3.81 µM) | 0.05 mg/L (≈ 0.122 µM) | 0.05 mg/L (≈ 0.122 µM) | 0.025 mg/L (≈ 0.0611 µM) | 0.025 mg/L (≈ 0.0611 µM) | 0.05 mg/L (≈ 0.122 µM) | 0.2 mg/L (≈ 0.489 µM) | 0.05 mg/L (≈ 0.122 µM) | 0.05 mg/L (≈ 0.122 µM) | 0.025 mg/L (≈ 0.0611 µM) | 0.025 mg/L (≈ 0.0611 µM) | 0.2 mg/L (≈ 0.489 µM) | 0.78 mg/L (≈ 1.91 µM) | 0.05 mg/L (≈ 0.122 µM) | 0.05 mg/L (≈ 0.122 µM) | 0.05 mg/L (≈ 0.122 µM) | MIC ([18]; Propionibacterium acens 11828, anaerobic, Gram +, 10^6 cells/ml, read-out: MIC): 1.56 mg/L (≈ 3.81 µM); MIC [22]: 0.05 mg/L (≈ 0.122 µM); MIC [23]: 0.05 mg/L (≈ 0.122 µM); MIC [24]: 0.05 mg/L (≈ 0.122 µM); MIC [25]: 0.1 mg/L (≈ 0.244 µM); MIC [26]: 0.1 mg/L (≈ 0.244 µM); MIC [27]: 0.39 mg/L (≈ 0.953 µM); MIC [28]: 0.39 mg/L (≈ 0.953 µM); MIC [29]: 0.78 mg/L (≈ 1.91 µM); MIC [30]: 0.39 mg/L (≈ 0.953 µM); MIC [31]: 0.1 mg/L (≈ 0.244 µM); MIC [32]: 0.1 mg/L (≈ 0.244 µM); MIC [33]: 0.78 mg/L (≈ 1.91 µM); MIC [34]: 0.78 mg/L (≈ 1.91 µM); MIC [35]: 0.39 mg/L (≈ 0.953 µM); MIC [36]: 0.1 mg/L (≈ 0.244 µM); MIC [37]: 0.1 mg/L (≈ 0.244 µM)
